Here are results for one molecule from patent EP4755396A1, “TREATMENT OF P53 GENE MUTATION OR DEFECT NEGATIVE CANCER AND TUMOR PATIENTS” (Ascentawits Pharmaceuticals, Ltd., priority 2023, dated 2025).

The experiment relates to HPAF-II cells. The experiment is described as follows: Cell cycle G2/M arrest, PI staining flow cytometry. Format: cell-based. The settings on record: HPAF-II cells with p53 pathogenic mutation, 0.1 nM AST-3424, 5 µM Nutlin-3, 24 hours (Figure 5). As for the experimental part: Overview of the experimental process: • 1) H460/HPAF-II cell suspensions were added to a 24-well plate, with a cell density of 100000 /well and 995 µL of medium per well. • 2) The cells were cultured overnight in an incubator at 37°C, 5% CO2. • 3) Compound Treatment
After 24 hours of cell plating, according to the protocol, each cell line experiment was grouped as: Monotherapy: After 24 hours of cell plating, each well was supplied with 5µL of test compounds at different concentrations: 1% DMSO, 5 µM Nutlin-3 and 0.1 nM AST-3424, shaken gently to ensure even mixing, and then placed at 37°C, 5% CO2 in an incubator.
To cells AST-3424 pre-treatment for 2 hours followed by co-treatment with Nutlin-3 for 24 hours.
To cells Nutlin-3 pre-treatment for 2 hours followed by co-treatment with AST -3424 for 24 hours.
Co-treatment with AST-3424 and Nutlin-3 for 24 hours.
4) The cells were digested, centrifuged at 1000 g at 4°C, washed once with pre-cooled PBS, centrifuged at 1000 g at 4°C, and fixed with 1 mL of pre-cooled 70% ethanol at -20°C overnight.
5) The cells were centrifuged at 3000g at 4°C, washed once with pre-cooled PBS (phosphate buffer), centrifuged at 3000g at 4°C. Prepare PI staining solution. […] Flow cytometric detection was performed on the same day, and the proportion of cells in different cell cycle phases was analyzed using FlowJo. […]
A general note: In flow cytometry, cells or beads pass a laser one at a time.

In the case of `COc1ccc(C2=NC(c3ccc(Cl)cc3)C(c3ccc(Cl)cc3)N2C(=O)N2CCNC(=O)C2)c(OC(C)C)c1` (racemic) [Nutlin-3], the “cell cycle (G0/G1, S, G2/M phases)” value is “no effect”.
